According to patent US6437138B1, “3-pyridyloxymethyl heterocyclic ether compounds useful in controlling chemical synaptic transmission” (priority 1996, dated 2002):
Structures can show the parent of a compound that is named as a salt.

| SMILES | melting point |
| --- | --- |
| CN1CC[C@H]1COc1cnc(Cl)c(-c2ccc(Cl)cc2)c1 (as salt: citrate) [Example 143, 6-Chloro-5-(4-chlorophenyl)-3-(1-methyl-2-(S)-azetidialmethoxy)pyridine Citrate] | 78 to 79 °C |
| Clc1ncc(OC[C@@H]2CCN2)cc1C=Cc1ccncc1 (as salt: citric acid salt) [Example 89, 5-(2-(4-Pyridinyl)ethenyl)-6-chloro-3-(2-(S)-azetidnylmethoxy)pyridine Citric Acid Salt] | 195 to 197 °C |
| CN1CCC[C@H]1COc1cncc(-c2ccco2)c1 (as salt: hydrochloride) [Example 5, 5-(2-Furanyl-3-(1-methyl-2-(S)-pyrrolidinylmethoxy)pyridine Dihydrochloride] | 189 to 191 °C |
| CN1CCC[C@H]1COc1cncc(-c2cccs2)c1 (as salt: hydrochloride) [Example 6, 5-(2-Thienyyl)-3-(1-methyl-2-(S)-pyrrolidinylmethoxy)pyridine Dihydrochloride] | 201 to 203 °C |
| CN1CCC[C@H]1COc1cncc(C=Cc2ccncc2)c1 (as salt: hydrochloride) [Example 13, 5-(2-(4-Pyridinyl)ethenylyl)-3-((1-methyl-2-(S)-pyrrolidinylmethoxy)pyridine Triihydrochloride] | 187 to 190 °C |
| CN1CCC[C@H]1COc1cncc(C#CCCCC#N)c1 (as salt: hydrochloride) [Example 14, (5-(5-Cyano-1-pentynyl-3-(1-methyl-2-(S)-pyrrolidinylmethoxy)pyridine Dihydrochloride] | 165 to 167 °C |
| COC(=O)C=Cc1cncc(OC[C@@H]2CCCN2C)c1 (as salt: hydrochloride) [Example 16, 5-(2-(Methoxycarbonyl)ethenyl-3-(1-methyl-2-(S)-pyrrolidinylmethoxy)pyridine Dihydrochloride] | 128 to 130 °C |
| COC(=O)c1cncc(OC[C@@H]2CCCN2C)c1 (as salt: hydrochloride) [Example 27, 5-Methoxycarbonol-3-(1-methyl-2-(S)-pyrrolidinylmethoxy)pyridine Dihydrochloride] | 165 to 167 °C |
| CN1CCC[C@H]1COc1cncc(CCc2ccncc2)c1 (as salt: hydrochloride) [Example 29, 5-(2-(4-Pyridinnyl)ethyl)-3-(1-methyl-2-(S)-pyrrolidinnylmethoxy)pyridine Trihydrochloride] | 148 to 150 °C |
| CN1CCC[C@H]1COc1cncc(-c2ccc3ccccc3c2)c1 (as salt: hydrochloride) [Example 31, 5-(2-Naphthalenyl-3-(1-methyl-2-(S)-pyrrolidinylmethoxy)pyridine Dihydrochloride] | 248 to 251 °C |
| CN1CCC[C@H]1COc1cncc(-c2cnc3ccccc3c2)c1 (as salt: hydrochloride) [Example 35, 5-(3-Ouinolinyl)-3-(1-methyl-2-(S)-pyrrolidinylmethoxy)pyridine Trihydrochloride] | 184 to 186 °C |
| CN1CCC[C@H]1COc1cncc(-c2cc(C(F)(F)F)cc(C(F)(F)F)c2)c1 (as salt: hydrochloride) [Example 37, 5-(3,5-bis(Trifluoromehyl)phenyl)-3-(1-methyl-2-(S)-pyrrolidinylmethoxy)pyridine Dihydrochloride] | 68 to 70 °C |
| CN1CCC[C@H]1COc1cncc(-c2ccc(F)c(Cl)c2)c1 (as salt: hydrochloride) [Example 42, 5-(3-Chloro-4-fluorolphenyl)-3-(1-methyl-2-(S)-pyrrolidinylmethoxy)pyridine Dihydrochloride] | 202 to 204 °C |
| CN1CCC[C@H]1COc1cnc(Cl)c(C=Cc2ccncc2)c1 (as salt: hydrochloride) [Example 50, 5-(2-(4-Pyridinyl)ethenyl)-6-chloro-3-(1-methyl-(2-(S)-pyrrolidinylmethoxy)pyridine Dihydrochloride] | 218 to 222 °C |
| CCCCCCC#Cc1cncc(OC[C@@H]2CCN2)c1 (as salt: hydrochloride) [Example 63, 5-Octynyl-3-(2-(S)-azetidinylmethoxy)pyridine Dihydrochloride] | 88 to 90 °C |
| CN1CCC[C@@H]1COc1cnc(Cl)c(-c2ccc(Cl)cc2)c1 (as salt: hydrochloride) [Example 76, 5-(4-Clhorophenyl)-6-chloro-3-(1-methyl-2-(R)-pyrrolidinylmethoxy)pyridine Hydrochloride] | 176 to 178 °C |
| CN1CCC[C@@H]1COc1cnc(Cl)c(C=Cc2ccncc2)c1 (as salt: hydrochloride) [Example 82, 5-(2-(4-Pyridinnyl)ethenyl)-6-chloro-3-(1-methyl-2-(R)-pyrrolidinylmethoxy)pyridine Dihydrochloride] | 220 to 222 °C (dec.) |
| CC(C)(C)C=CC=Cc1cc(OC[C@@H]2CCCN2)cnc1Cl (as salt: hydrochloride) [Example 148, 6-Chloro-5-(5,5dimethyl-1,3-hexadienyl)-3-(2-(S)-pyrrilidinylmethoxy)pyridine Dihydrochloride] | 206 to 208 °C |
| Clc1ncc(OC[C@@H]2CCCN2)cc1-c1cccs1 (as salt: hydrochloride) [Example 152, 6-Chloro-3-(2-(S)-pyrrolidinolmethoxy)-5-(2-thienyl)pyridine Dihydrochloride] | 208 to 210 °C |
| CC(C)(C)C=CC=Cc1cncc(OC[C@@H]2CCN2)c1 (as salt: hydrochloride) [Example 163, 3-(2-(S)-Azetidinylmethoxy)-5-(5,5-dimethyl-1,3-hexadiene)pyridine Dihydrochloride] | 142 to 144 °C |

| SMILES | melting point |
| --- | --- |
| CN1CC[C@H]1COc1cncc(C=CC=CC(C)(C)C)c1 (as salt: hydrochloride) [Example 166, 5-(5,5-Dimethyl-1,3-hexadiene)-3-(1-methyl-2-(S)-azetidinylmethoxy)pyridine Dihydrochloride] | 143 to 145 °C |
| C#Cc1cc(OC[C@@H]2CCCN2)cnc1Cl (as salt: hydrochloride) [Example 194, 6-Chloro-5-(ethynyl-3-(2-(S)-pyrrolidinylmethoxy)pyridine Hydrochloride] | 214 to 216 °C |
| COCCOc1cncc(OC[C@@H]2CCCN2C)c1 (as salt: hydrochloride) [Example 198, 5-Methoxyethoxy-3-(1-methyl-(2S)-pyrrolidinylmethoxy)pyridine Dihydrochloride] | 196 to 197 °C |
| Nc1cccc(-c2cncc(OC[C@@H]3CCN3)c2)c1 (as salt: salt) [Example 65, 5-(3-Aminophenyl)-3-(2-(S)-azetidinylmethoxy)pyridine Hidrochloride] | 85 to 87 °C |
| Clc1ncc(OC[C@@H]2CCN2)cc1-c1ccccc1 (as salt: salt) [Example 67, 5-Phenyl-6-chloro-3-(2-(S)-azetidinylmethoxy)pyridine Hidrochloride] | 148 to 150 °C |
| CN1CC[C@H]1COc1cnc(Cl)c(-c2ccccc2)c1 (as salt: salt) [Example 68, 5-Phenyl-6-chloro-3-(1-methyl-2-(S)-azetidinylmethoxy)pyridine Hidrochloride] | 187 to 188 °C |
| Clc1ncc(OC[C@H]2CCCN2)cc1-c1ccccc1 (as salt: salt) [Example 70] | 178 to 180 °C |
| C=Cc1cc(OC[C@@H]2CCN2C)cnc1C (as salt: salt) [Example 196, 5-Ethenyl-6-methyl-3-(1-methyl-2-(S)-azetidinylmethoxy)pyridine] | 140 to 143 °C |
| C=Cc1cc(OC[C@@H]2CCN2C)cnc1F (hydrate or solvate) [Example 204, 5-Ethenyl-6-fluoro-3-(1-methyl-2-(S)-azetidinylmethoxy)pyridine] | 156 to 158 °C |
| C=Cc1cncc(OC[C@@H]2CCCN2C)c1.Cl.Cl [Example 8, 5-Ethenyl-3-(1-methyl-2-(S)-pyrrolidinylmethoxy)pyridine Dihydrochloride] | 152 to 156 °C |
| CCCCCCCCC#Cc1cncc(OC[C@@H]2CCCN2C)c1.Cl.Cl [Example 9, 5-(1-Decynyl)-3-(1-methyl-2-(S)-pyrrolidinylmethoxy)pyridine Dihydrochloride] | 102 to 105 °C |
| Cl.Cl.Clc1ccc(-c2cncc(OC[C@@H]3CCCN3)c2)cc1 [Example 20, 5-(4-chlorophenyl)-3-(2-(S)-pyrrolidinylmethoxy)pyridine Dihydrochloride] | 180 to 182 °C |
| CC(=O)c1cc(OC[C@@H]2CCCN2)cnc1Cl.Cl.Cl [Example 32, 5-Acetyl-6-chloro-3-(2-(S)-pyrrolidinylmethoxy)pyridine Dihydrochloride] | 173 to 176 °C |
| CC(C)(C)C=CC=Cc1cc(OC[C@H]2CCCN2)cnc1Cl.Cl.Cl [Example 77, 5-(5,5-Dimethyl-1,3-hexadienyl)-6-chloro-3-(2-(R)-pyrrolidinylmethoxy)pyridine Dihydrochloride] | 190 to 192 °C |
| CN1CCC[C@@H]1COc1cnc(Cl)c(C=CC=CC(C)(C)C)c1.Cl.Cl [Example 78, 5-(5,5-Dimethyl-1,3-hexadienyl)-6-chloro-3-(1-methyl-2-(R)-pyrrolidinylmethoxy)pyridine Dihydrochloride] | 194 °C (dec.) |
| CCCCCCC#Cc1cc(OC[C@H]2CCCN2C)cnc1Cl.Cl.Cl [Example 80, 5-(1-Octynyl)-6-chloro-3-(1-methyl-2-(R)-pyrrolidinylmethoxy)pyridine Dihydrochloride] | 114 to 116 °C (dec.) |
| CN1CCC[C@@H]1COc1cnc(Cl)c(CCc2ccncc2)c1.Cl.Cl.Cl [Example 83, 5-(2-(4-Pyridinyl)ethyl)-6-chloro-3-(1-methyl-2-(R)-pyrrolidinylmethoxy)pyridine Trihydrochloride] | 236 to 238 °C |
| Cl.Cl.Cl.Nc1cccc(-c2cncc(OC[C@H]3CCCN3)c2)c1 [Example 88, 5-(3-Aminophenyl)-3-(2-(R)-pyrrolidinylmethoxy)pyridine Trihydrochloride] | 240 to 242 °C |
| CC(C)(C)C=CC=Cc1cncc(OC[C@H]2CCCN2)c1.Cl.Cl [Example 138, 5-(5,5-Dimethyl-1,3-hexadienyl)-3-(2-(R)-pyrrolidinylmethoxy)pyridine Dihydrochloride] | 145 to 147 °C |
